Laboratory results published in patent US5670521A, “Reversal of multi-drug resistance by triphenyl-azacycloalkane derivatives” (Merrell Pharmaceuticals Inc., priority 1996, dated 1997).

System: KBV1 cells
Conditions: KBV1 vs wild type KB cells
Experimental: The ability of compounds of this invention to reverse multi drug resistance can be determined using standard test procedures. The ability of the test compounds to inhibit the growth of multidrug resistant human epidermoid carcinoma (KBV1) cells in the presence of both Vinblastine and the compound was determined.

## CC[C@]1(O)C[C@@H]2CN(CCc3c([nH]c4ccccc34)[C@@](C(=O)OC)(c3cc4c(cc3OC)N(C)[C@H]3[C@@](O)(C(=O)OC)[C@H](OC(C)=O)[C@]5(CC)C=CCN6CC[C@]43[C@@H]65)C2)C1 [Vinblastine]
  resistance to vinblastine compared to wild type KB cells: at least 1,000 times
